Patent US9744164B2, “Neuroprotective polyphenol analogs” (Salk Institute for Biological Studies, priority 2011, dated 2017)

How the values were obtained:
N9 microglial cells = experiment: anti-inflammatory assay, LPS-induced microglial activation (NO release); format: cell-based, mouse; conditions: bacterial lipopolysaccharide, derivative 1-10 μM, 24 hr
Procedure, shortened: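 Mouse N9 microglia in DME/7.5% DFCS stimulated with 10 μg/ml LPS alone or with derivatives (1-10 μM) for 24 hr. NO in cleared medium measured by Griess reagent, 10 min at room temperature, absorbance at 550 nm. Fisetin (10 μM) as positive control.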

[1] = tested on: embolic strokes in rabbits; experiment: rabbit small clot embolic stroke model (RSCEM); format: in vivo
Excerpt: The ability of polyphenol analogs to treat, prevent and/or mitigate one or more symptoms of stroke can also be evaluated in in vivo assays. Such assays are known in the art and find use. One applicable in vivo screening assay is the rabbit clot embolic stroke model, discussed, e.g., in Lapchak, et al., Stroke (2002) 33(9):2279-84 and Lapchak, Exp Neurol. (2007) 205(2):407-13. The rabbit small clot embolic stroke model (RSCEM) and rabbit large clot embolic stroke model (RLCEM) can be used to determine the potential neuroprotective properties and safety profile of test polyphenol analogs after an embolic stroke. Rabbits are embolized by injecting small blood clots (RSCEM) or large blood clots (RLCEM) into the cerebral circulation. Behavioral analysis is conducted 24 hours later, allowing for determination of the effective stroke dose (ES50) or clot amount (milligrams) that produces severe neurological deficits in 50% of rabbits. A drug is considered neuroprotective if it increases the ES50 compared with the vehicle-treated control group.
Either vehicle or bolus injections of chlorogenic acid were administered intravenously over 1 minute starting 5 minutes following embolization using a suspension of small-sized blood clots. In this series of studies, CGA was administered at 50 mg/kg. Behavioral analysis was conducted at 24 hours following treatment, which allowed for the construction of quantal dose-response analysis curves. […] For the superimposed graphs, normal animals are plotted on the y-axis at 0% and abnormal animals are plotted at 100%. […] Moreover, CGA increased the P50 value (the clot dose that produces abnormality in 50% of a treatment group) compared to vehicle control. For a detailed discussion of the methods used to fit the quantal data to a sigmoidal curve, see Zivin and Waud. The pharmacology of chlorogenic acid in the rabbit small clot embolic stroke model (RSCEM) has been published (Lapchak, Exp Neurol. 2007 205(2):407-13). In the manuscript, it is shown that CGA has a therapeutic window of 60 minutes in the RSCEM. FIG. 2 presents the therapeutic window data.
Using the RSCEM assay described above for CGA, the effects of Fisetin (50 mg/kg) on behavioral outcome measured 24 hours following embolization is tested.

PC12 cells = experiment: glucose starvation assay; format: cell-based; conditions: PC12 cells starved for glucose, MTT 24 hr
Description: FIG. 5C—PC12 cells were glucose-deprived then were incubates in the absence or presence of Baicalein. Cell viability was determined 24 hr later using the MTT assay. […] When these cells are starved for glucose, there is approximately 70% maximal survival in the presence of NGF. Baicalein promotes over 80% survival (FIG. 5C).

RGC-5 nerve cells = experiment: chemical ischemia model (IAA) in RGC-5 cells; format: cell-based; conditions: RGC-5, 30 μM IAA 2 hr, Baicalein 5-25 μM, also added 2 hrs after insult
Description: FIG. 5D—RGC-5 nerve cells were treated with 30 μM iodoacetic acid for 2 hr in the presence or absence of 5-25 μM Baicalein. In some experiments, Baicalein was added 2 hr after the ischemic event. Cell survival (%) was measured after 24 hr by the MTT assay. Baicalein added before (□) or 2 hr after (●) ischemia. […] When these cells are starved for glucose, there is approximately 70% maximal survival in the presence of NGF. Baicalein promotes over 80% survival (FIG. 5C).

[2] = Shia, et al. 2009; cited from earlier work
Akita mouse = conditions: Maher et al. 2011; cited from earlier work

| SMILES | microglia (anti-inflammatory activity) (N9 microglial cells) [%] | also measured |
| --- | --- | --- |
| CC(C)Oc1cc(-c2ccc(O)c(O)c2)nc2ccccc12 [CMS-024, 4-isopropoxy-2-(3,4-dihydroxyphenyl)quinoline] | 80 | – |
| Oc1ccc(-c2cc(OC3CCCC3)c3ccccc3n2)cc1O [CMS-121, 4-cyclopentyloxy-2-(3,4-dihydroxyphenyl)quinoline] | 82 | – |
| O=c1cc(-c2ccccc2)oc2cc(O)c(O)c(O)c12 [Baicalein, 5,6,7-trihydroxyflavone] | – | behavior when administered 1 hour following embolization ([1]; 1 hour following embolization): effective at improving behavior; behavior when administered 3 hours following embolization ([1]; 3 hours following embolization): neither improve behavior; survival (PC12 cells): over 80%; cell death in chemical ischemia model (RGC-5 nerve cells): prevents cell death |
| COc1ccc(/C=C/C(=O)c2cc(C)c(C)cc2O)cc1OCc1ccccc1 [CMS-086, (E)-3-(3-(benzyloxy)-4-methoxyphenyl)-1-(2-hydroxy-4,5-dimethylphenyl)prop-2-en-1-one] | 70 | – |
| O=c1c(O)c(-c2ccc(O)c(O)c2)oc2cc(O)ccc12 [Fisetin, 3,7,3′,4′-tetrahydroxy flavone] | 80 | bioavailability [2]: poor; elevation of blood sugar (Akita mouse): no effect; kidney hypertrophy and albuminuria (Akita mouse): reduced |
| O=c1c(O)c(-c2ccc(N3CCCC3)c(O)c2)oc2c1ccc1ccccc12 [CMS-140, 3-hydroxy-2-(3-hydroxy-4-(pyrrolidin-1-yl)phenyl)-4H-benzo[h]chromen-4-one] | 50 | – |
| COc1cc(-c2ccc(O)c(O)c2)nc2ccccc12 [CMS-007, 4-methoxy-2-(3,4-dihydroxyphenyl)quinoline] | 85 | – |
| O=c1c(O)c(-c2ccc(O)c(O)c2)oc2ccccc12 [CMS-04P, reference compound] | 80 | – |
| CCOc1cc(-c2ccc(O)c(O)c2)nc2ccccc12 [CMS-023, 4-ethoxy-2-(3,4-dihydroxyphenyl)quinoline] | 90 | – |
